Here are results for 24 molecules from patent publication US10669238B2, “Irreversible bruton's tyrosine kinase inhibitor” (HEFEI INSTITUTES OF PHYSICAL SCIENCE, CHINESE ACADEMY OF …, priority 2016, dated 2020).

One may read the IC50 as the concentration needed to halve the response being measured. Low values mean greater potency, high ones weaker potency.

The target of the first test is BTK protein kinase (Homo sapiens, UniProt Q06187). As to the kind of experiment: In vitro enzymatic activity against BTK (ADP-Glo). Format: biochemical. Conditions: compound with BTK 4 hours at room temperature; ATP 10 μM, 37° C. 1 hour; values given in μM. As to the method: In vitro enzymatic activity of the compounds against BTK was determined in a experimental assay of in vitro enzymatic activity using […] kit (purchased from Progema, USA).
BTK protein kinase, sequence (Q06187 whole entry): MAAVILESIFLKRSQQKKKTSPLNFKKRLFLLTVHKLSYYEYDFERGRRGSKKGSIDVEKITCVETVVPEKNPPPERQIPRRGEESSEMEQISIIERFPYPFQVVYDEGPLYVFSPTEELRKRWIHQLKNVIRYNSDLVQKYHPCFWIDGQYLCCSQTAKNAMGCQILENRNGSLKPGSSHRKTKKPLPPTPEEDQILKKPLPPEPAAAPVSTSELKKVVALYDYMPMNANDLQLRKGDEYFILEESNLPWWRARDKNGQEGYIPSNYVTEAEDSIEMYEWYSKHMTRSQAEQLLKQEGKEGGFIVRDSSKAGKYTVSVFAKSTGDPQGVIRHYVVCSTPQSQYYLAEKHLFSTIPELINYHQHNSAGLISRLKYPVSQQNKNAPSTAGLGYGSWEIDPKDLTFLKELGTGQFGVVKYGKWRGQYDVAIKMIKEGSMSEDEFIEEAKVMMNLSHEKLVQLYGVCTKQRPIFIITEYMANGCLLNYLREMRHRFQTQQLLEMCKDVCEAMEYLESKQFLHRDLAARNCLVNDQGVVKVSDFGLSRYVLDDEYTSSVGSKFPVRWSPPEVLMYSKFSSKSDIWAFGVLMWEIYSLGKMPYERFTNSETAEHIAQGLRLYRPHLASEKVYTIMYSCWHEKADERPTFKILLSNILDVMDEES
9 μL of BTK protein kinase (at a concentration of 1.5 ng/μL) was used to react with compounds (1 μL) shown in the following table that were diluted three times in gradient at room temperature for 4 hours (the final concentration of the compound being 10 μM, 3 μM, 1 μM, 0.3 μM, 0.1 μM, 0.03 μM, 0.01 μM, 0.003 μM);
2 μL of ATP and 3 μL of the substrate Poly(4:1 Glu, Tyr)Peptide (Promega, USA) (the final concentrations being 10 μM and 0.2 μg/μL, respectively) were added to allow reaction at 37° C. for 1 hour;
5 μL of BTK kinase solution after reaction was taken and added into 5 μL of ADP-Glo™ (Promega, USA) reagent to allow reaction at room temperature for 40 mins so as to terminate the kinase reaction and exhaust the remaining ATP;
10 μL kinase detecting reagent was added to convert ADP to ATP, and newly synthesized ATP was detected using coupled luciferase/[…] reaction, then the IC50 values were calculated by using a plotting method based on the Envision reading.
In general terms: ADP-Glo first removes unused ATP, then detects ADP through luciferase.
With `Cc1c(NC(=O)c2ccc(C(C)(C)C)cc2)cc(NC(=O)CCl)cc1-c1cc(Nc2ccc(C(=O)N3CCOCC3)cc2)c(=O)n(C)c1` [Compound 7, 4-(tert-butyl)-N-(5-(2-chloroacetamide)-2-methyl-3-(1-methyl-5-((4-(morpholin-4-carbonyl)phenyl)amino)-6-oxo-1,6-dihydropyridin-3-yl)phenyl)benzoylamide], the concentration for half-maximal inhibition (IC50) turned out to be 1.22 µM. `C=CC(=O)Nc1ccc(NC(=O)c2ccc(C(C)(C)C)cc2)c(C)c1-c1cc(Nc2ccc(C(=O)N3CCOCC3)cc2)c(=O)n(C)c1` [Compound 24] yielded an IC50 of 1.77 µM.

Staying with this test, now noted: compound with BTK 4 hours at room temperature; ATP 10 μM, 37° C. 1 hour; values in nM.
As to `C=CC(=O)Nc1cc(Nc2cc(-c3cccc(NC(=O)c4ccc(N(C)C)cc4)c3C)cn(C)c2=O)ccc1N1CCN(CC)CC1` [Compound 74, N-(3-(5-((3-acrylamide-4-(4-ethylpiperazin-1-yl)phenyl)amino)-1-methyl-6-oxo-1,6-dihydropyridin-3-yl)-2-methylphenyl)-4-(dimethylamino)benzoylamide], the IC50 is 0.023 µM. Still for that read-out and setting: with `C=CC(=O)Nc1cc(Nc2cc(-c3cccc(NC(=O)c4ccc5c(c4)OCCO5)c3C)cn(C)c2=O)ccc1C(=O)N1CCOCC1` [Compound 44, N-(3-(5-((3-acrylamide-4-(morpholin-4-carbonyl)phenyl)amino)-1-methyl-6-oxo-1,6-dihydropyridin-3-yl)-2-methylphenyl)-2,3-dihydrobenzo[b][1,4]dioxin-6-carboxamide] the figure was 0.072 µM; with `Cc1ccc(Nc2cc(-c3cccc(NC(=O)c4ccc(C(C)(C)C)cc4)c3C)cn(C)c2=O)cc1NC(=O)CCl` [Compound 26, N-(3-(5-((3-chloroacetamide-4-methylphenyl)amino)-1-methyl-6-oxo-1,6-dihydropyridin-3-yl)-2-methylphenyl)-4-(tert-butyl)benzamide], 0.223 µM. The same measure, in the same setting: with `C=CC(=O)Nc1cc(Nc2cc(-c3cccc(NC(=O)c4ccc5c(c4)OCO5)c3C)cn(C)c2=O)ccc1C(=O)N1CCOCC1` [Compound 18, N-(3-(5-((3-acrylamide-4-(morpholin-4-carbonyl)phenyl)amino)-1-methyl-6-oxo-1,6-dihydropyridin-3-yl)-2-methylphenyl)-benzo[d][1,3]dioxolanyl-5-carboxamide] the figure was 0.187 µM. The molecule `C=CC(=O)Nc1cc(Nc2cc(-c3cccc(NC(=O)c4ccc(C(C)C)cc4)c3C)cn(C)c2=O)ccc1C(=O)N1CCOCC1` [Compound 64, N-(3-(5-((3-acrylamide-4-(morpholin-4-carbonyl)phenyl)amino)-1-methyl-6-oxo-1,6-dihydropyridin-3-yl)-2-methylphenyl)-4-isopropylbenzoylamide] gave an IC50 of 0.022 µM.

Molecule `C=CC(=O)Nc1cc(Nc2cc(-c3cccc(NC(=O)c4cc5c(s4)CCCC5)c3C)cn(C)c2=O)ccc1N1CCC(OC)CC1` [Compound 88, N-(3-(5-((3-acrylamide-4-(4-methoxypiperidin-1-yl)phenyl)amino)-1-methyl-6-oxo-1,6-dihydropyridin-3-yl)-2-methylphenyl)-4,5,6,7-tetrahydrobenzo[b]thiophene-2-carboxamide] returned an IC50 of 0.167 µM. Molecule `C=CC(=O)Nc1cc(Nc2cc(-c3cccc(NC(=O)c4ccc5c(c4)CCCC5)c3C)cn(C)c2=O)ccc1C(=O)N1CCOCC1` [Compound 43, N-(3-(5-((3-acrylamide-4-(morpholin-4-carbonyl)phenyl)amino)-1-methyl-6-oxo-1,6-dihydropyridin-3-yl)-2-methylphenyl)-5,6,7,8-tetrahydronaphthalene-2-carboxamide] displayed a concentration for half-maximal inhibition (IC50) of 0.041 µM.

`C=CC(=O)Nc1cc(Nc2cc(-c3cccc(NC(=O)c4ccc(N(C)C)cc4)c3C)cn(C)c2=O)ccc1C(=O)NCCOC` [Compound 53, 2-acrylamide-4-((5-(3-(4-(dimethylamino)benzoylamide)-2-methylphenyl)-1-methyl-2-oxo-1,2-dihydropyridin-3-yl)amino)-N-(2-methoxyethyl)benzoylamide]: the IC50 is 0.667 µM.

Take `Cc1c(NC(=O)c2ccc(C(C)(C)C)cc2)cccc1-c1cc(Nc2ccc(C(=O)N3CCCC3)c(NC(=O)CCl)c2)c(=O)n(C)c1` [Compound 32, N-(3-(5-((3-chloroacetamide-4-(pyrrolidin-1-carbonyl)phenyl)amino)-1-methyl-6-oxo-1,6-dihydropyridin-3-yl)-2-methylphenyl)-4-(tert-butyl)benzamide]: the IC50 is 0.029 µM. For the molecule `C=CC(=O)Nc1cc(Nc2cc(-c3cccc(NC(=O)c4ccc(N(C)C)cc4)c3C)cn(C)c2=O)ccc1N1CCOCC1` [Compound 73], 0.0249 µM corresponded to half-maximal inhibition (IC50). On the same count and under the same terms, with `C=CC(=O)Nc1cc(Nc2cc(-c3cccc(NC(=O)c4ccc(N(C)C)cc4)c3C)cn(C)c2=O)ccc1C(=O)N1CCC(O)CC1` [Compound 56, N-(3-(5-((3-acrylamide-4-(4-hydroxypiperdin-1-carbonyl)phenyl)amino)-1-methyl-6-oxo-1,6-dihydropyridin-3-yl)-2-methylphenyl)-4-(dimethylamino)benzoylamide] the figure was 0.124 µM. The same measure, in the same setting: with `C=CC(=O)Nc1cc(Nc2cc(-c3cccc(NC(=O)c4cccc(C(F)(F)F)c4)c3C)cn(C)c2=O)ccc1C(=O)N1CCOCC1` [Compound 57, N-(3-(5-((3-acrylamide-4-(morpholin-4-carbonyl)phenyl)amino)-1-methyl-6-oxo-1,6-dihydropyridin-3-yl)-2-methylphenyl)-3-(trifluoromethyl)benzoylamide] the figure was over 10 µM; with `C=CC(=O)Nc1cc(Nc2cc(-c3cccc(NC(=O)c4cc5ccccc5s4)c3C)cn(C)c2=O)ccc1N1CCN(C)CC1` [Compound 81, N-(3-(5-((3-acrylamide-4-(4-methylpiperazin-1-yl)phenyl)amino)-1-methyl-6-oxo-1,6-dihydropyridin-3-yl)-2-methylphenyl)-benzo[b]thiophene-2-carboxamide], 0.0289 µM; with `C=CC(=O)Nc1cc(Nc2cc(-c3cccc(NC(=O)c4ccc(C5CC5)cc4)c3C)cn(C)c2=O)ccc1C(=O)N1CCOCC1` [Compound 66, N-(3-(5-((3-acrylamide-4-(morpholin-4-carbonyl)phenyl)amino)-1-methyl-6-oxo-1,6-dihydropyridin-3-yl)-2-methylphenyl)-4-cyclopropylbenzoylamide], 0.18 µM.

With `C=CC(=O)Nc1cc(Nc2cc(-c3cccc(NC(=O)c4ccc(N(C)C)cc4)c3C)cn(C)c2=O)ccc1C(=O)NC1CCOCC1` [Compound 51, 2-acrylamide-4-((5-(3-(4-(dimethylamino)benzoylamide)-2-methylphenyl)-1-methyl-2-oxo-1,2-dihydropyridin-3-yl)amino)-N-(tetrahydro-2H-pyran-4-yl)benzoylamide], inhibition was half-maximal at 0.089 µM (IC50).

The molecule `C=CC(=O)Nc1cc(Nc2cc(-c3cccc(NC(=O)c4ccc(N(C)C)cc4)c3C)cn(C)c2=O)ccc1C(=O)N1CCCCC1` [Compound 50, N-(3-(5-((3-acrylamide-4-(piperidin-1-carbonyl)phenyl)amino)-1-methyl-6-oxo-1,6-dihydropyridin-3-yl)-2-methylphenyl)-4-(dimethylamino)benzoylamide] registered an IC50 of 0.091 µM.

The molecule `Cc1ccc(C(=O)Nc2cccc(-c3cc(Nc4ccc(C(=O)N5CCOCC5)c(NC(=O)CCl)c4)c(=O)n(C)c3)c2C)cc1` [Compound 11, N-(3-(5-((3-chloroacetamide-4-(morpholin-4-carbonyl)phenyl)amino)-1-methyl-6-oxo-1,6-dihydropyridin-3-yl)-2-methylphenyl)-4-(methyl)benzoylamide] displayed an IC50 of 0.152 µM. On the same count and under the same terms, the result for `C=CC(=O)Nc1cc(Nc2cc(-c3cccc(NC(=O)c4cc5c(s4)CCCC5)c3C)cn(C)c2=O)ccc1N1CCN(CC)CC1` [Compound 76, N-(3-(5-((3-acrylamide-4-(4-ethylpiperazin-1-yl)phenyl)amino)-1-methyl-6-oxo-1,6-dihydropyridin-3-yl)-2-methylphenyl)-4,5,6,7-tetrahydrobenzo[b]thiophene-2-carboxamide] reads 0.025 µM; that for `C=CC(=O)Nc1cc(Nc2cc(-c3cccc(NC(=O)c4ccc(C(C)(C)C)cc4)c3C)cn(C)c2=O)ccc1C` [Compound 25, N-(3-(5-((3-acrylamide-4-methylphenyl)amino)-1-methyl-6-oxo-1,6-dihydropyridin-3-yl)-2-methylphenyl)-4-(tert-butyl)benzamide], 0.212 µM; that for `C=CC(=O)Nc1cc(Nc2cc(-c3cccc(NC(=O)c4cc5c(s4)CCCC5)c3C)cn(C)c2=O)ccc1N(C)C` [Compound 77, N-(3-(5-((3-acrylamide-4-(dimethylamino)phenyl)amino)-1-methyl-6-oxo-1,6-dihydropyridin-3-yl)-2-methylphenyl)-4,5,6,7-tetrahydrobenzo[b]thiophene-2-carboxamide], 0.101 µM. On the same count and under the same terms, with `C=CC(=O)Nc1cc(Nc2cc(-c3cccc(NC(=O)c4ccc(C(C)(C)C)cc4)c3C)cn(C)c2=O)ccc1C(=O)N1CCN(C(=O)OC(C)(C)C)CC1` [Compound 38, tertbutyl 4-(2-acrylamide-4-((5-(3-(4-(tert-butyl)benzamide)-2-methylphenyl)-1-methyl-2-oxo-1,2-dihydropyridin-3-yl)amino)benzoyl)piperazin-1-carboxylate] the figure was 0.085 µM; with `CCC(=O)Nc1cc(Nc2cc(-c3cccc(NC(=O)c4ccc(N(C)C)cc4)c3C)cn(C)c2=O)ccc1C(=O)N1CCOCC1` [Compound 37, N-(3-(5-((3-propanamide-4-(morpholin-4-carbonyl)phenyl)amino)-1-methyl-6-oxo-1,6-dihydropyridin-3-yl)-2-methylphenyl)-4-(dimethylamino)benzo], 0.646 µM.
